Our source for the relative viability values is the supplement of paper PMC10307832.

Holding throughout (assay): relative viability (nuclei count vs DMSO), 5 days (fraction); higher = more cells survive
Compound in the assay “AZD5582 + Dasatinib”: C[C@@H](C(=O)N[C@@H](C1CCCCC1)C(=O)N2CCC[C@H]2C(=O)N[C@@H]3[C@@H](CC4=CC=CC=C34)OCC#CC#CCO[C@@H]5CC6=CC=CC=C6[C@@H]5NC(=O)[C@@H]7CCCN7C(=O)[C@H](C8CCCCC8)NC(=O)[C@H](C)NC)NC [AZD5582] + Cc1nc(Nc2ncc(C(=O)Nc3c(C)cccc3Cl)s2)cc(N2CCN(CCO)CC2)n1 [Dasatinib] (partner 0.075 µM)
In short, it runs like this:
(§1)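 Medians of duplicate plates are given as relative viability. That measure is the nuclei count in treated wells divided by the count in vehicle wells. Counts were taken on 4× images of lung cancer cell lines in 1536-well plates, 5 days after pin-tool dosing the day after seeding with one drug alone or a fixed anchor-drug dose plus five library-drug doses (not always all listed) in √10 steps.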

Compound in assay [1]: Cn1nnc2c(C(N)=O)ncn2c1=O [Temozolomide] + Cc1cc(Nc2cc(N3CCN(C)CC3)nc(Sc3ccc(NC(=O)C4CC4)cc3)n2)n[nH]1 [Tozasertib] (partner 0.1 µM)
In short, it runs like this: as §1

Compound in the assay “AZD5582 + Navitoclax”: C[C@@H](C(=O)N[C@@H](C1CCCCC1)C(=O)N2CCC[C@H]2C(=O)N[C@@H]3[C@@H](CC4=CC=CC=C34)OCC#CC#CCO[C@@H]5CC6=CC=CC=C6[C@@H]5NC(=O)[C@@H]7CCCN7C(=O)[C@H](C8CCCCC8)NC(=O)[C@H](C)NC)NC [AZD5582] + CC1(C)CCC(c2ccc(Cl)cc2)=C(CN2CCN(c3ccc(C(=O)NS(=O)(=O)c4ccc(N[C@H](CCN5CCOCC5)CSc5ccccc5)c(S(=O)(=O)C(F)(F)F)c4)cc3)CC2)C1 [Navitoclax] (partner 0.5 µM)
A digest of the protocol: as §1

Compound in assay [2]: Cn1nnc2c(C(N)=O)ncn2c1=O [Temozolomide] + Nc1nc2[nH]cc(CCc3ccc(C(=O)N[C@@H](CCC(=O)O)C(=O)O)cc3)c2c(=O)[nH]1 [Pemetrexed] (partner 0.2 µM)
In short, it runs like this:
as §1

NCI-H1395: the relative viability in the assay with AZD5582 + Dasatinib (first compound 0.001581 µM) was 0.437; with AZD5582 + Dasatinib (first compound 0.005 µM), 0.458; with AZD5582 + Dasatinib (first compound 0.01581 µM), 0.354; with AZD5582 + Dasatinib (first compound 0.05 µM), 0.46; in assay [1] (first compound 0.2 µM), 0.726; in assay [1] (first compound 0.6325 µM) it was 0.692. Also, the relative viability in assay [1] (first compound 2 µM) came out at 0.813; in assay [1] (first compound 6.325 µM) it was 0.677; in assay [1] (first compound 20 µM), 0.705; with AZD5582 + Navitoclax (first compound 0.001581 µM), 1.02; with AZD5582 + Navitoclax (first compound 0.005 µM), 1.16; with AZD5582 + Navitoclax (first compound 0.05 µM), 1.49. Also, the relative viability is 0.931 in assay [2] (first compound 0.2 µM); 0.983 in assay [2] (first compound 0.6325 µM); 1.03 in assay [2] (first compound 2 µM); 0.769 in assay [2] (first compound 6.325 µM); 0.754 in assay [2] (first compound 20 µM).

For the cell line NCI-H1437, the relative viability with AZD5582 + Dasatinib (first compound 0.001581 µM) worked out at 0.289; in the assay with AZD5582 + Dasatinib (first compound 0.005 µM), 0.452; with AZD5582 + Dasatinib (first compound 0.01581 µM), 0.387; with AZD5582 + Dasatinib (first compound 0.05 µM), 0.414; in assay [1] (first compound 0.2 µM) it was 0.422; in assay [1] (first compound 0.6325 µM), 0.415. In addition, the relative viability in assay [1] (first compound 2 µM) was 0.422; in assay [1] (first compound 6.325 µM), 0.422; in assay [1] (first compound 20 µM), 0.415; with AZD5582 + Navitoclax (first compound 0.001581 µM), 1.07; in the assay with AZD5582 + Navitoclax (first compound 0.005 µM), 1.09; in the assay with AZD5582 + Navitoclax (first compound 0.01581 µM) it was 1.05. Besides, the relative viability with AZD5582 + Navitoclax (first compound 0.05 µM) was determined as 1.04; in assay [2] (first compound 0.2 µM), 0.31; in assay [2] (first compound 0.6325 µM), 0.317; in assay [2] (first compound 2 µM), 0.376; in assay [2] (first compound 6.325 µM) it was 0.316; in assay [2] (first compound 20 µM), 0.277.

Regarding NCI-H1650, the relative viability was 0.293 in the assay with AZD5582 + Dasatinib (first compound 0.001581 µM); 0.352 with AZD5582 + Dasatinib (first compound 0.005 µM); 0.341 with AZD5582 + Dasatinib (first compound 0.01581 µM); 0.344 with AZD5582 + Dasatinib (first compound 0.05 µM); 0.484 in assay [1] (first compound 0.2 µM); 0.441 in assay [1] (first compound 0.6325 µM). Besides, the relative viability in assay [1] (first compound 2 µM) is 0.424; in assay [1] (first compound 6.325 µM) it was 0.353; in assay [1] (first compound 20 µM), 0.461; with AZD5582 + Navitoclax (first compound 0.001581 µM), 1.07; with AZD5582 + Navitoclax (first compound 0.005 µM) it was 1.04; in the assay with AZD5582 + Navitoclax (first compound 0.01581 µM), 1.23. Further, the relative viability turned out to be 1.17 with AZD5582 + Navitoclax (first compound 0.05 µM); 0.335 in assay [2] (first compound 0.2 µM); 0.349 in assay [2] (first compound 0.6325 µM); 0.443 in assay [2] (first compound 2 µM); 0.355 in assay [2] (first compound 6.325 µM); 0.459 in assay [2] (first compound 20 µM).

Take NCI-H1651: the relative viability with AZD5582 + Dasatinib (first compound 0.001581 µM) was 0.428; in the assay with AZD5582 + Dasatinib (first compound 0.005 µM), 0.478; in the assay with AZD5582 + Dasatinib (first compound 0.05 µM), 0.552; in assay [1] (first compound 0.2 µM), 0.716; in assay [1] (first compound 0.6325 µM), 0.779; in assay [1] (first compound 2 µM), 0.674. For the same cell line, the relative viability in assay [1] (first compound 6.325 µM) is 0.684; in assay [1] (first compound 20 µM) it was 0.684; with AZD5582 + Navitoclax (first compound 0.001581 µM), 0.981; with AZD5582 + Navitoclax (first compound 0.005 µM), 1; with AZD5582 + Navitoclax (first compound 0.01581 µM), 1.21; with AZD5582 + Navitoclax (first compound 0.05 µM), 1.14. Also, the relative viability in assay [2] (first compound 0.2 µM) was 0.58; in assay [2] (first compound 0.6325 µM), 0.588; in assay [2] (first compound 2 µM), 0.591; in assay [2] (first compound 6.325 µM), 0.6; in assay [2] (first compound 20 µM), 0.617.

NCI-H1666: the relative viability was 0.656 in the assay with AZD5582 + Dasatinib (first compound 0.001581 µM); 0.814 in the assay with AZD5582 + Dasatinib (first compound 0.005 µM); 0.757 with AZD5582 + Dasatinib (first compound 0.01581 µM); 0.846 in the assay with AZD5582 + Dasatinib (first compound 0.05 µM); 0.594 in assay [1] (first compound 0.2 µM); 0.589 in assay [1] (first compound 0.6325 µM). Also, the relative viability stood at 0.631 in assay [1] (first compound 2 µM); 0.531 in assay [1] (first compound 6.325 µM); 0.5 in assay [1] (first compound 20 µM); 0.823 with AZD5582 + Navitoclax (first compound 0.001581 µM); 0.859 with AZD5582 + Navitoclax (first compound 0.005 µM); 1.11 in the assay with AZD5582 + Navitoclax (first compound 0.01581 µM). Besides, the relative viability is 0.837 with AZD5582 + Navitoclax (first compound 0.05 µM); 0.736 in assay [2] (first compound 0.2 µM); 0.895 in assay [2] (first compound 0.6325 µM); 0.963 in assay [2] (first compound 2 µM); 0.877 in assay [2] (first compound 6.325 µM); 0.767 in assay [2] (first compound 20 µM).

For the cell line NCI-H1734, the relative viability with AZD5582 + Dasatinib (first compound 0.001581 µM) was 0.468; with AZD5582 + Dasatinib (first compound 0.005 µM), 0.548; with AZD5582 + Dasatinib (first compound 0.01581 µM), 0.434; in the assay with AZD5582 + Dasatinib (first compound 0.05 µM), 0.664; in assay [1] (first compound 0.2 µM), 0.305; in assay [1] (first compound 0.6325 µM), 0.251. The relative viability in assay [1] (first compound 2 µM) worked out at 0.242; in assay [1] (first compound 6.325 µM), 0.284; in assay [1] (first compound 20 µM) it was 0.278; with AZD5582 + Navitoclax (first compound 0.001581 µM), 0.791; in the assay with AZD5582 + Navitoclax (first compound 0.005 µM), 0.866; with AZD5582 + Navitoclax (first compound 0.01581 µM), 0.886. For the same cell line, the relative viability with AZD5582 + Navitoclax (first compound 0.05 µM) was 0.954; in assay [2] (first compound 0.2 µM) it was 0.398; in assay [2] (first compound 0.6325 µM), 0.422; in assay [2] (first compound 2 µM) it was 0.431; in assay [2] (first compound 6.325 µM) it was 0.394; in assay [2] (first compound 20 µM), 0.386.

For NCI-H1755, the relative viability in the assay with AZD5582 + Dasatinib (first compound 0.001581 µM) is 0.398; with AZD5582 + Dasatinib (first compound 0.005 µM), 0.456; with AZD5582 + Dasatinib (first compound 0.01581 µM), 0.356; with AZD5582 + Dasatinib (first compound 0.05 µM), 0.363; in assay [1] (first compound 0.2 µM), 0.579; in assay [1] (first compound 0.6325 µM), 0.549. In addition, the relative viability in assay [1] (first compound 2 µM) stood at 0.58; in assay [1] (first compound 6.325 µM) it was 0.594; in assay [1] (first compound 20 µM), 0.528; with AZD5582 + Navitoclax (first compound 0.001581 µM) it was 0.933; with AZD5582 + Navitoclax (first compound 0.005 µM) it was 0.973; with AZD5582 + Navitoclax (first compound 0.01581 µM), 1.01. Further, the relative viability in the assay with AZD5582 + Navitoclax (first compound 0.05 µM) turned out to be 1; in assay [2] (first compound 0.2 µM), 0.433; in assay [2] (first compound 0.6325 µM), 0.43; in assay [2] (first compound 2 µM), 0.388; in assay [2] (first compound 6.325 µM) it was 0.39; in assay [2] (first compound 20 µM) it was 0.612.

Take NCI-H1793: the relative viability in the assay with AZD5582 + Dasatinib (first compound 0.001581 µM) was determined as 0.32; with AZD5582 + Dasatinib (first compound 0.005 µM) it was 0.429; with AZD5582 + Dasatinib (first compound 0.01581 µM), 0.292; with AZD5582 + Dasatinib (first compound 0.05 µM) it was 0.261; in assay [1] (first compound 0.6325 µM), 0.31; in assay [1] (first compound 2 µM), 0.45. Further, the relative viability in assay [1] (first compound 6.325 µM) is 0.325; in assay [1] (first compound 20 µM), 0.301; in the assay with AZD5582 + Navitoclax (first compound 0.001581 µM) it was 0.475; with AZD5582 + Navitoclax (first compound 0.005 µM), 0.453; with AZD5582 + Navitoclax (first compound 0.01581 µM), 0.476; with AZD5582 + Navitoclax (first compound 0.05 µM), 0.465. Moreover, the relative viability in assay [2] (first compound 0.6325 µM) was 1.19; in assay [2] (first compound 2 µM) it was 1.03; in assay [2] (first compound 6.325 µM) it was 0.718; in assay [2] (first compound 20 µM), 0.792.
